Experimental data: PubChem BioAssay AID248 (DTP/NCI, 2004)
Toxic doses and inconclusive results are not listed. No stated cut-off is given here; in the data, active means T/C of 150% or more; inactive means T/C below 125%.

Test system: L1210 leukemia ip in BDF1 mice, survival T/C
Experiment: NCI In Vivo Anticancer Drug Screen. Data for tumor model L1210 Leukemia (intraperitoneal) in B6D2F1 (BDF1) mice
Details: endpoint: mean survival time, higher = longer survival
Summary of the method: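 Transplanted-tumor mice were given test agent; controls received vehicle only. Survival readings from the two groups were divided (treated over control).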

[1] = dose: 100.0 mg/kg/injection, schedule: Q01DX009 (ip), vehicle: saline
[2] = dose: 100.0 mg/kg/injection, schedule: Q04DX003 (ip), vehicle: saline
[3] = dose: 200.0 mg/kg/injection, schedule: Q01DX009 (ip), vehicle: saline
[4] = dose: 200.0 mg/kg/injection, schedule: Q04DX003 (ip), vehicle: saline
[5] = dose: 400.0 mg/kg/injection, schedule: Q01DX009 (ip), vehicle: saline
[6] = dose: 400.0 mg/kg/injection, schedule: Q04DX003 (ip), vehicle: saline
[7] = dose: 100.0 mg/kg/injection, schedule: Q01DX009 (ip), vehicle: saline with Tween-80
[8] = dose: 200.0 mg/kg/injection, schedule: Q01DX009 (ip), vehicle: saline with Tween-80
[9] = dose: 400.0 mg/kg/injection, schedule: Q01DX009 (ip), vehicle: saline with Tween-80
[10] = dose: 100.0 mg/kg/injection, schedule: Q04DX003 (ip), vehicle: saline with Tween-80
[11] = dose: 200.0 mg/kg/injection, schedule: Q04DX003 (ip), vehicle: saline with Tween-80
[12] = dose: 400.0 mg/kg/injection, schedule: Q04DX003 (ip), vehicle: saline with Tween-80

Measured: T/C

CC(=O)N(C)c1ccc(N)cc1
inactive: [1] 104 % of control | [2] 100 % of control | [3] 98 % of control | [4] 105 % of control | [5] 93 % of control | [6] 102 % of control

Nc1cc(Cl)ccc1N1CCCCC1
inactive: [7] 114 % of control | [8] 97 % of control | [9] 106 % of control

O=C(CCCl)NC1CC1c1ccccc1 (stereo not drawn)
inactive: [7] 90 % of control | [10] 97 % of control | [8] 95 % of control | [11] 97 % of control | [9] 94 % of control | [12] 95 % of control

C/C=C(/C(=O)c1ccc(-c2ccccc2)cc1)c1ccccc1
inactive: [7] 105 % of control | [10] 95 % of control | [8] 94 % of control | [11] 89 % of control | [9] 90 % of control | [12] 94 % of control

Cc1cc(C(=O)Nc2ccc(NC3=NCCN3)cc2)c(C)cc1C(=O)Nc1ccc(NC2=NCCN2)cc1
inactive: dose: 1.88 mg/kg/injection, schedule: Q01DX Z (ip), vehicle: saline 93 % of control | dose: 3.75 mg/kg/injection, schedule: Q01DX Z (ip), vehicle: saline 98 % of control | dose: 7.5 mg/kg/injection, schedule: Q01DX Z (ip), vehicle: saline 94 % of control | dose: 15.0 mg/kg/injection, schedule: Q01DX Z (ip), vehicle: saline 108 % of control | dose: 30.0 mg/kg/injection, schedule: Q01DX Z (ip), vehicle: saline 103 % of control

S=C=NCc1ccc(Br)cc1
inactive: dose: 1.25 mg/kg/injection, schedule: Q01DX009 (ip), vehicle: other 95 % of control | dose: 2.5 mg/kg/injection, schedule: Q01DX009 (ip), vehicle: other 100 % of control | dose: 2.5 mg/kg/injection, schedule: Q04DX003 (ip), vehicle: other 103 % of control | dose: 5.0 mg/kg/injection, schedule: Q01DX009 (ip), vehicle: other 97 % of control | dose: 5.0 mg/kg/injection, schedule: Q04DX003 (ip), vehicle: other 103 % of control | dose: 10.0 mg/kg/injection, schedule: Q01DX001 (ip), vehicle: other 93 % of control | dose: 10.0 mg/kg/injection, schedule: Q04DX003 (ip), vehicle: other 88 % of control

COc1ccc(/C=N/NC(=O)c2ccc(Cl)cc2)cc1
inactive: dose: 50.0 mg/kg/injection, schedule: Q01DX009 (ip), vehicle: saline with Tween-80 88 % of control | [7] 105 % of control | [8] 91 % of control

NC(=O)c1[nH]cnc1N
inactive: dose: 100.0 mg/kg/injection, schedule: Q01DX001 (ip), vehicle: saline 97 % of control | dose: 200.0 mg/kg/injection, schedule: Q01DX001 (ip), vehicle: saline 101 % of control | dose: 400.0 mg/kg/injection, schedule: Q01DX001 (ip), vehicle: saline 97 % of control

Nc1[nH]c(=S)ncc1-c1ccccc1Cl
inactive: dose: 6.25 mg/kg/injection, schedule: Q01DX009 (ip), vehicle: Klucel (hydroxypropylcellulose) (HPC) 94 % of control | dose: 12.5 mg/kg/injection, schedule: Q01DX009 (ip), vehicle: Klucel (hydroxypropylcellulose) (HPC) 94 % of control | dose: 25.0 mg/kg/injection, schedule: Q01DX009 (ip), vehicle: Klucel (hydroxypropylcellulose) (HPC) 97 % of control | dose: 100.0 mg/kg/injection, schedule: Q01DX009 (ip), vehicle: Klucel (hydroxypropylcellulose) (HPC) 88 % of control

Nc1cc(N)nc(C(F)(F)F)n1
inactive: dose: 50.0 mg/kg/injection, schedule: Q01DX Z (ip), vehicle: methylcellulose (MC) 102 % of control | dose: 100.0 mg/kg/injection, schedule: Q01DX Z (ip), vehicle: methylcellulose (MC) 94 % of control

Cn1c(=O)c2c(ncn2CCSc2nnnc3ccccc23)n(C)c1=O
inactive: [2] 98 % of control | [4] 93 % of control | [6] 94 % of control

N=C(CC(=O)Nc1ccccn1)c1ccccc1
inactive: dose: 100.0 mg/kg/injection, schedule: Q01DX001 (ip), vehicle: other 100 % of control | dose: 200.0 mg/kg/injection, schedule: Q01DX001 (ip), vehicle: other 107 % of control | dose: 400.0 mg/kg/injection, schedule: Q01DX001 (ip), vehicle: other 89 % of control

C/C(=C\Nc1cccnc1)C(=O)c1ccc(F)cc1
inactive: [7] 102 % of control | [8] 102 % of control | [9] 98 % of control

CCCCCCCCNC(=O)C1OC(n2cnc3c(N)ncnc32)C(O)C1O (stereo not drawn)
inactive: dose: 100.0 mg/kg/injection, schedule: Q01DX005 (ip), vehicle: saline with Tween-80 86 % of control | [1] 104 % of control | dose: 200.0 mg/kg/injection, schedule: Q01DX005 (ip), vehicle: saline with Tween-80 105 % of control | [3] 91 % of control | [5] 110 % of control

Cc1c2cc3c(c1O)C(=O)CC(O3)c1ccc(O)c(c1)-c1ccc(O)c(c1)C(=O)OCC1OC(O2)C(O)C(O)C1O (stereo not drawn)
inactive: dose: 0.13 mg/kg/injection, schedule: Q01DX009 (ip), vehicle: Klucel (hydroxypropylcellulose) (HPC) 98 % of control | dose: 0.25 mg/kg/injection, schedule: Q01DX009 (ip), vehicle: Klucel (hydroxypropylcellulose) (HPC) 95 % of control | dose: 0.5 mg/kg/injection, schedule: Q01DX009 (ip), vehicle: Klucel (hydroxypropylcellulose) (HPC) 101 % of control | dose: 1.0 mg/kg/injection, schedule: Q01DX009 (ip), vehicle: Klucel (hydroxypropylcellulose) (HPC) 114 % of control

NC(CCl)=NC1CN2CCC1CC2 (stereo not drawn)
inactive: dose: 25.0 mg/kg/injection, schedule: Q04DX002 (ip), vehicle: saline 101 % of control | dose: 50.0 mg/kg/injection, schedule: Q04DX002 (ip), vehicle: saline 90 % of control | dose: 100.0 mg/kg/injection, schedule: Q04DX002 (ip), vehicle: saline 102 % of control

Cc1ccccc1SSc1ccccc1C
inactive: dose: 100.0 mg/kg/injection, schedule: Q04DX003 (ip), vehicle: Klucel (hydroxypropylcellulose) (HPC) 94 % of control | dose: 200.0 mg/kg/injection, schedule: Q04DX003 (ip), vehicle: Klucel (hydroxypropylcellulose) (HPC) 97 % of control | dose: 400.0 mg/kg/injection, schedule: Q04DX003 (ip), vehicle: Klucel (hydroxypropylcellulose) (HPC) 91 % of control

CCCCCCCCCCN=C(N)N/C(N)=N/S(=O)(=O)c1ccc(OCCC)cc1
inactive: dose: 100.0 mg/kg/injection, schedule: Q04DX002 (ip), vehicle: saline with Tween-80 100 % of control | dose: 200.0 mg/kg/injection, schedule: Q04DX002 (ip), vehicle: saline with Tween-80 110 % of control | dose: 400.0 mg/kg/injection, schedule: Q04DX002 (ip), vehicle: saline with Tween-80 107 % of control

Cc1cc(OCc2nc(N)nc(N)c2-c2ccc(Cl)c(Cl)c2)ccc1NC(=O)c1ccc(S(=O)(=O)F)cc1
inactive: dose: 75.0 mg/kg/injection, schedule: Q01DX001 (ip), vehicle: saline with Tween-80 100 % of control
